Measurements from US10689377B2 (Mirati Therapeutics, Inc., priority 2017, dated 2020).

Biological target: KRas G12C (Homo sapiens, UniProt P01116, G12C)
Experiment: Cellular inhibition of KRas G12C measured by Phospho-ERK in NCI-H358 cells
Type: cell-based
Conditions: pERK(Thr202/Tyr204) normalized with GAPDH, NCI-H358 cells, 3 hours; read-out: IC50
In short: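 Ratio of phospho-ERK(Thr202/Tyr204) to GAPDH, read by near-infrared secondary antibodies on fixed, permeabilised NCI-H358 cells, expressed relative to DMSO control. Compound exposure was 3 h at 0.5% DMSO. IC50 values come from 4-parameter curve fits.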

KRas G12C, sequence (P01116 1-188 isoform P01116-2 G12C): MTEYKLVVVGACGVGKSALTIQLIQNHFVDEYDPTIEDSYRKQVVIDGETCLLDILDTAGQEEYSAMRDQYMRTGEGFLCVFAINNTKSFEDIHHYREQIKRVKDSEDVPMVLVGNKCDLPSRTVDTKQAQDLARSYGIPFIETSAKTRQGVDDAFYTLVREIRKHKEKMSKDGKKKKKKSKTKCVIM

Compound	IC50 [nM]
C=CC(=O)N1CCN(c2nc(OCCCN3C[C@@H]4C[C@H]3CO4)nc3c2CCN(c2cccc4cccc(C)c24)C3)C[C@@H]1CC#N [Example 369, 2-((S)-4-(2-(3-((1S,4S)-2-oxa-5-azabicyclo[2.2.1]heptan-5-yl)propoxy)-7-(8-methylnaphthalen-1-yl)-5,6,7,8-tetrahydropyrido[3,4-d]pyrimidin-4-yl)-1-acryloylpiperazin-2-yl)acetonitrile]	0.1 to 1000
C=CC(=O)N1CCN(c2nc(OCCCN3CCOCC3)nc3c2CCN(c2cccc4cccc(C)c24)C3)C[C@@H]1CC#N [Example 370, (S)-2-(1-acryloyl-4-(7-(8-methylnaphthalen-1-yl)-2-(3-morpholinopropoxy)-5,6,7,8-tetrahydropyrido[3,4-d]pyrimidin-4-yl)piperazin-2-yl)acetonitrile]	0.1 to 1000
C=CC(=O)N1CCN(c2nc(OCCC(=O)N(C)C)nc3c2CCN(c2cccc4cccc(C)c24)C3)C[C@@H]1CC#N [Example 371, (S)-3-((4-(4-acryloyl-3-(cyanomethyl)piperazin-1-yl)-7-(8-methylnaphthalen-1-yl)-5,6,7,8-tetrahydropyrido[3,4-d]pyrimidin-2-yl)oxy)-N,N-dimethylpropanamide]	0.1 to 1000
C=CC(=O)N1CCN(c2nc(OC[C@@H]3CCCN3C)nc3c2CCN(c2ccccc2CC(F)(F)F)C3)CC1CC#N (stereo partly drawn) [Example 374, 2-(1-acryloyl-4-(2-(((S)-1-methylpyrrolidin-2-yl)methoxy)-7-(2-(2,2,2-trifluoroethyl)phenyl)-5,6,7,8-tetrahydropyrido[3,4-d]pyrimidin-4-yl)piperazin-2-yl)acetonitrile]	> 1000
C=CC(=O)N1CCN(c2nc(OC[C@@H]3CCCN3C)nc3c2CCN(c2ccncc2C(F)(F)F)C3)CC1CC#N (stereo partly drawn) [Example 375, 2-(1-acryloyl-4-(2-(((S)-1-methylpyrrolidin-2-yl)methoxy)-7-(3-(trifluoromethyl)pyridin-4-yl)-5,6,7,8-tetrahydropyrido[3,4-d]pyrimidin-4-yl)piperazin-2-yl)acetonitrile]	> 1000
CC#CC(=O)N1CCN(c2nc(OC[C@@H]3CCCN3C)nc3c2CCN(c2cccc4ccccc24)C3)CC1CC#N (stereo partly drawn) [Example 376, 2-(1-(but-2-ynoyl)-4-(2-(((S)-1-methylpyrrolidin-2-yl)methoxy)-7-(naphthalen-1-yl)-5,6,7,8-tetrahydropyrido[3,4-d]pyrimidin-4-yl)piperazin-2-yl)acetonitrile 2,2,2-trifluoroacetate]	0.1 to 1000
C=CC(=O)N1CCN(c2nc(OC[C@@H]3CCCCN3C)nc3c2CCN(c2cccc4ccccc24)C3)C[C@@H]1CC#N [Example 377, 2-((S)-1-acryloyl-4-(2-(((S)-1-methylpiperidin-2-yl)methoxy)-7-(naphthalen-1-yl)-5,6,7,8-tetrahydropyrido[3,4-d]pyrimidin-4-yl)piperazin-2-yl)acetonitrile]	0.1 to 1000
C=CC(=O)N1C[C@@H](C)N(c2nc(OC[C@@H]3CCCN3C)nc3c2CCN(c2cccc4ccccc24)C3)C[C@@H]1CC#N [Example 378, 2-((2S,5R)-1-acryloyl-5-methyl-4-(2-(((S)-1-methylpyrrolidin-2-yl)methoxy)-7-(naphthalen-1-yl)-5,6,7,8-tetrahydropyrido[3,4-d]pyrimidin-4-yl)piperazin-2-yl)acetonitrile]	0.1 to 1000
C=CC(=O)N1CCN(c2nc(OC[C@@H]3CCCN3C)nc3c2CCN(c2ccccc2C(F)(F)F)C3)C[C@@H]1CC#N [Example 379, 2-((S)-1-acryloyl-4-(2-(((S)-1-methylpyrrolidin-2-yl)methoxy)-7-(2-(trifluoromethyl)phenyl)-5,6,7,8-tetrahydropyrido[3,4-d]pyrimidin-4-yl)piperazin-2-yl)acetonitrile]	0.1 to 1000
C=CC(=O)N1CCN(c2nc(OC[C@@H]3CCCN3CCOC)nc3c2CCN(c2cccc4ccccc24)C3)CC1CC#N (stereo partly drawn) [Example 380, 2-(1-acryloyl-4-(2-(((S)-1-(2-methoxyethyl)pyrrolidin-2-yl)methoxy)-7-(naphthalen-1-yl)-5,6,7,8-tetrahydropyrido[3,4-d]pyrimidin-4-yl)piperazin-2-yl)acetonitrile]	0.1 to 1000
C=CC(=O)N1CCN(c2nc(OC[C@@H]3C[C@@H](OC)CN3C)nc3c2CCN(c2cccc4ccccc24)C3)CC1CC#N (stereo partly drawn) [Example 381, 2-(1-acryloyl-4-(2-(((2S,4R)-4-methoxy-1-methylpyrrolidin-2-yl)methoxy)-7-(naphthalen-1-yl)-5,6,7,8-tetrahydropyrido[3,4-d]pyrimidin-4-yl)piperazin-2-yl)acetonitrile]	0.1 to 1000
C=CC(=O)N1CCN(c2nc(OC[C@@H]3CCCN3C)nc3c2CCN(c2cncc(F)c2C(F)(F)F)C3)C[C@@H]1CC#N [Example 383, 2-((S)-1-acryloyl-4-(7-(5-fluoro-4-(trifluoromethyl)pyridin-3-yl)-2-(((S)-1-methylpyrrolidin-2-yl)methoxy)-5,6,7,8-tetrahydropyrido[3,4-d]pyrimidin-4-yl)piperazin-2-yl)acetonitrile]	0.1 to 1000
C=CC(=O)N1CCN(c2nc(OC[C@@H]3C[C@@H](F)CN3C)nc3c2CCN(c2cncc(F)c2C(F)(F)F)C3)C[C@@H]1CC#N [Example 384, 2-((S)-1-acryloyl-4-(2-(((2S,4R)-4-fluoro-1-methylpyrrolidin-2-yl)methoxy)-7-(5-fluoro-4-(trifluoromethyl)pyridin-3-yl)-5,6,7,8-tetrahydropyrido[3,4-d]pyrimidin-4-yl)piperazin-2-yl)acetonitrile]	0.1 to 1000
C=CC(=O)N1CCN(c2nc(OC[C@@H]3CCCN3C)nc3c2CCN(c2cncc(Cl)c2C(F)(F)F)C3)C[C@@H]1CC#N [Example 385, 2-((S)-1-acryloyl-4-(7-(5-chloro-4-(trifluoromethyl)pyridin-3-yl)-2-(((S)-1-methylpyrrolidin-2-yl)methoxy)-5,6,7,8-tetrahydropyrido[3,4-d]pyrimidin-4-yl)piperazin-2-yl)acetonitrile]	0.1 to 1000
C=CC(=O)N1CCN(c2nc(OC[C@@H]3C[C@@H](F)CN3C(C)C)nc3c2CCN(c2cncc(F)c2C(F)(F)F)C3)C[C@@H]1CC#N [Example 386, 2-((S)-1-acryloyl-4-(2-(((2S,4R)-4-fluoro-1-isopropylpyrrolidin-2-yl)methoxy)-7-(5-fluoro-4-(trifluoromethyl)pyridin-3-yl)-5,6,7,8-tetrahydropyrido[3,4-d]pyrimidin-4-yl)piperazin-2-yl)acetonitrile]	0.1 to 1000
C=CC(=O)N1CCN(c2nc(OC[C@@H]3CCCN3C)nc3c2CCN(c2cncc(Cl)c2C)C3)C[C@@H]1CC#N [Example 387, 2-((S)-1-acryloyl-4-(7-(5-chloro-4-methylpyridin-3-yl)-2-(((S)-1-methylpyrrolidin-2-yl)methoxy)-5,6,7,8-tetrahydropyrido[3,4-d]pyrimidin-4-yl)piperazin-2-yl)acetonitrile]	0.1 to 1000
C=CC(=O)N1CCN(c2nc(OC[C@@H]3CCCN3C)nc3c2CCN(c2cccc(F)c2C)C3)C[C@@H]1CC#N [Example 388, 2-((S)-1-acryloyl-4-(7-(3-fluoro-2-methylphenyl)-2-(((S)-1-methylpyrrolidin-2-yl)methoxy)-5,6,7,8-tetrahydropyrido[3,4-d]pyrimidin-4-yl)piperazin-2-yl)acetonitrile]	0.1 to 1000
CC#CC(=O)N1CCN(c2nc(OC[C@@H]3CCCN3C)nc3c2CCN(c2cccc(C)c2C)C3)C[C@@H]1CC#N [Example 389, 2-((S)-1-(but-2-ynoyl)-4-(7-(2,3-dimethylphenyl)-2-(((S)-1-methylpyrrolidin-2-yl)methoxy)-5,6,7,8-tetrahydropyrido[3,4-d]pyrimidin-4-yl)piperazin-2-yl)acetonitrile]	> 1000
C=CC(=O)N1CCN(c2nc(OC[C@@H]3[C@@H](O)CCN3C)nc3c2CCN(c2cccc4ccccc24)C3)C[C@@H]1CC#N [Example 390, 2-((S)-1-acryloyl-4-(2-(((2R,3S)-3-hydroxy-1-methylpyrrolidin-2-yl)methoxy)-7-(naphthalen-1-yl)-5,6,7,8-tetrahydropyrido[3,4-d]pyrimidin-4-yl)piperazin-2-yl)acetonitrile]	0.1 to 1000
CC#CC(=O)N1CCN(c2nc(OC[C@@H]3CCCN3C)nc3c2CCN(c2cccc4cccc(Cl)c24)C3)C[C@@H]1CC#N [Example 391, 2-((S)-1-(but-2-ynoyl)-4-(7-(8-chloronaphthalen-1-yl)-2-(((S)-1-methylpyrrolidin-2-yl)methoxy)-5,6,7,8-tetrahydropyrido[3,4-d]pyrimidin-4-yl)piperazin-2-yl)acetonitrile]	0.1 to 1000
C=CC(=O)N1CCN(c2nc(OC[C@@H]3CCCN3C)nc3c2CCN(c2cccc(C)c2C)C3)C[C@@H]1CC#N [Example 394, 2-((S)-1-acryloyl-4-(7-(2,3-dimethylphenyl)-2-(((S)-1-methylpyrrolidin-2-yl)methoxy)-5,6,7,8-tetrahydropyrido[3,4-d]pyrimidin-4-yl)piperazin-2-yl)acetonitrile]	0.1 to 1000
C=CC(=O)N1CCN(c2nc(OC[C@]3(C)CCCN3C)nc3c2CCN(c2cccc4ccccc24)C3)CC1CC#N (stereo partly drawn) [Example 395, 2-(1-acryloyl-4-(2-(((S)-1,2-dimethylpyrrolidin-2-yl)methoxy)-7-(naphthalen-1-yl)-5,6,7,8-tetrahydropyrido[3,4-d]pyrimidin-4-yl)piperazin-2-yl)acetonitrile]	0.1 to 1000
C=CC(=O)N1CCN(c2nc(OC[C@@H]3CCCN3CC3CC3)nc3c2CCN(c2cccc4ccccc24)C3)CC1CC#N (stereo partly drawn) [Example 396, 2-(1-acryloyl-4-(2-(((S)-1-(cyclopropylmethyl)pyrrolidin-2-yl)methoxy)-7-(naphthalen-1-yl)-5,6,7,8-tetrahydropyrido[3,4-d]pyrimidin-4-yl)piperazin-2-yl)acetonitrile]	0.1 to 1000
C=CC(=O)N1CCN(c2nc(OCC(C)(C)N(C)C)nc3c2CCN(c2cccc4ccccc24)C3)CC1CC#N (stereo not drawn) [Example 397, 2-(1-acryloyl-4-(2-(2-(dimethylamino)-2-methylpropoxy)-7-(naphthalen-1-yl)-5,6,7,8-tetrahydropyrido[3,4-d]pyrimidin-4-yl)piperazin-2-yl)acetonitrile]	0.1 to 1000
